For eleven molecules, Activity results are on record in ChEMBL document CHEMBL2074300, “Induction profile of rat organic anion transporting polypeptide 2 (oatp2) by prototypical drug-metabolizing enzyme inducers that activate gene expression through ligand-activated transcription factor pathways” (J Pharmacol Exp Ther, 2002).

The target in data set [1] is T1, Solute carrier organic anion transporter family member 1A4 (Rattus norvegicus, UniProt O35913).
T1 sequence (O35913 whole entry): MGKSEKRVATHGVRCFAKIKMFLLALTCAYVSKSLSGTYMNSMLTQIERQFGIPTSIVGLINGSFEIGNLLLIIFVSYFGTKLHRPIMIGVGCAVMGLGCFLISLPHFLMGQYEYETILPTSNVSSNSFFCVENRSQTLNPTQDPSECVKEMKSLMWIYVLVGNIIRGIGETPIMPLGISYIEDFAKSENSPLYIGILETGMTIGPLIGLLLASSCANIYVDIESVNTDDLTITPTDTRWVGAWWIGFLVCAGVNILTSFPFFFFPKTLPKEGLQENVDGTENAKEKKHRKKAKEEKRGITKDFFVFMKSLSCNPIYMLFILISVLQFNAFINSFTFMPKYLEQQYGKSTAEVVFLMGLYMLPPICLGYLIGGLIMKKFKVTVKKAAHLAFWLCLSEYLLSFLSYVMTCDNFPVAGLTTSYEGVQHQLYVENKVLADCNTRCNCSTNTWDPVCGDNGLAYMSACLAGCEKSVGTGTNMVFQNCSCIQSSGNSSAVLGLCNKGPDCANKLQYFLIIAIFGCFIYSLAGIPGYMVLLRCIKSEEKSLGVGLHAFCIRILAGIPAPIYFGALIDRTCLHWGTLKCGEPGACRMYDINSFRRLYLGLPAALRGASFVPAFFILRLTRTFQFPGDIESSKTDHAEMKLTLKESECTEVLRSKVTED
Kind of data set: TP_TRANSPORTER: Northern blot in vivo SD rat, liver. It is filed as functional, organism-based, Sprague-Dawley.

The target of data set [2] is T1, Solute carrier organic anion transporter family member 1A4. Description: TP_TRANSPORTER: Western in vivo SD rat, liver. In kind it is functional, organism-based, Sprague-Dawley.

Regarding `OCc1c[nH]c2ccccc12` [INDOLE-3-CARBINOL], the Activity result in data set [1] is “inducer [+]”; in data set [2], “inducer [Decrease]”.
In the case of `O=c1cc(-c2ccccc2)oc2ccc3ccccc3c12` [BETA-NAPHTHOFLAVONE], the Activity entry in data set [2] is “inducer [Decrease]”.
Turning to `CCC1(c2ccccc2)C(=O)NC(=O)NC1=O` [PHENOBARBITAL], the Activity entry in data set [2] is “inducer [+]”.
`Clc1ccc(-c2cc(Cl)c(Cl)cc2Cl)c(Cl)c1` [POLYCHLORINATED BIPHENYL 99]: the Activity result in data set [2] was “inducer [+]”.
In the case of `C=CCSCC=C` [DIALLYL SULFIDE], the Activity entry in data set [1] and in data set [2] was “inducer [+]” each time.
As for `Clc1ccc(-c2cc(Cl)c(Cl)c(Cl)c2)cc1Cl` [POLYCHLORINATED BIPHENYL 126], the Activity result in data set [2] was “inducer [Decrease]”.
In the case of `Clc1cc2c(cc1Cl)Oc1cc(Cl)c(Cl)cc1O2` [2,3,7,8-TETRACHLORODIBENZO-P-DIOXIN], in data set [2], the Activity entry is “inducer [Decrease]”.
For the molecule `CCCC[C@@H](CC)COC(=O)c1ccccc1C(=O)OC[C@@H](CC)CCCC` [BIS(2-ETHYLHEXYL)PHTHALATE], the Activity result in data set [2] was “inducer [+]”.
`CC(=O)S[C@@H]1CC2=CC(=O)CC[C@]2(C)[C@H]2CC[C@@]3(C)[C@@H](CC[C@@]34CCC(=O)O4)[C@H]12` [SPIRONOLACTONE]: in data set [2], the Activity result is “inducer [+]”.
Turning to `CC(=O)[C@H]1[C@H](C#N)C[C@H]2[C@@H]3CC=C4C[C@@H](O)CC[C@]4(C)[C@H]3CC[C@@]21C` [PREGNENOLONE CARBONITRILE], the Activity entry in data set [1] and in data set [2] was “inducer [+]” in each case.
Turning to `C[C@@H]1C[C@H]2[C@@H]3CCC4=CC(=O)C=C[C@]4(C)[C@@]3(F)[C@@H](O)C[C@]2(C)[C@@]1(O)C(=O)CO` [DEXAMETHASONE], in data set [2], the Activity result was “inducer [+]”.
